Reference: EP1712231A2 (priority 1998, dated 2000)

Columns and labels:
[1] = Example 3: pharmacokinetic drug-drug interaction of tipranavir 1200 mg BID and delavirdine 400 mg TID, plasma levels by HPLC
Procedure: Baseline pharmacokinetic data for each drug were obtained under pharmacokinetic steady-state conditions following 7 days of dosing. Each drug was then co-administered for 10 days, at which time the pharmacokinetics of each was re-evaluated and compared with baseline data. […] All subjects were Caucasian. […] Pharmacokinetic analyses were based on results obtained in these subjects.
Detection was by UV absorbance at 260 nm.
Plasma samples were assayed for delavirdine concentrations using a validated, sensitive and specific isocratic high performance liquid chromatographic (HPLC) method: one for the upper concentration range, and one for the lower concentration range. […] The supernatant was mixed with buffer and directly injected. Chromatographic separation was achieved using a Brownlee cyano guard column and an analytical column, DuPont Zorbax® SB CN.
Treatment effects on pharmacokinetic parameters were assessed using Wilcoxon's Signed Rank Test.

[2] = Example 4: pharmacokinetic drug-drug interaction of tipranavir SEDDS 1250 mg BID and ritonavir oral solution 200 mg BID; format: in vivo, human; details: for CLPO / Cmin / Css: median (range)
[3] = Study 1: pharmacokinetic drug-drug interaction of tipranavir 1350 mg BID and ritonavir 500 mg BID, plasma levels by HPLC; format: in vivo, human; details: for CLPO / Cmin / Css: median (range), n=10
Description: Twelve subjects were Caucasian and two were of African descent. Ten subjects completed all aspects of the study. Pharmacokinetic analyses were based on the results obtained in these subjects. […] Detection was by UV absorbance at 260 nm. […] Ritonavir and the internal standard (IS) were extracted from human plasma by liquid-liquid extraction with an ethyl acetate mixture.

[4] = Study 2: pharmacokinetic drug-drug interaction of tipranavir 600 or 900 mg BID and ritonavir 100-500 mg BID, plasma levels by HPLC; format: in vivo, human; details: for CLPO / Cmin / Css / AUC / Cmax / Tmax: median (range); for half-life / AUC / Cmax / Tmax: both sexes, human, plasma, oral; for half-life: harmonic mean (range), read-out: t½ (converted)
Procedure: Both groups received their assigned dose of tipranavir continuously throughout the study period. […] The pharmacokinetics of tipranavir when coadministered with ritonavir were evaluated and compared with baseline data, while the ritonavir data were compared to historical data. The study was conducted in 19 healthy volunteers (16 males and 3 females) with a mean age of 30 years (range, 19-52 years), height of 177.1 cm (range, 162.6-190.5 cm), and weight of 76.7 kg (range, 57.3-95.0 kg). Eighteen subjects were Caucasian […]. […] Pharmacokinetic analyses were based on those subjects completing the baseline evaluation and at least one period of concomitant drug administration. […] Detection was by UV absorbance at 260 nm. […] Ritonavir and the internal standard (IS) were extracted from human plasma by liquid-liquid extraction with an ethyl acetate mixture.

[5] = Table 1: tipranavir drug-drug interaction potential and routes of elimination of antiretrovirals; details: drug-drug interaction with tipranavir
[6] = Tipranavir SEDDS SEC 1250mg BID + Ritonavir Oral Solution 200mg BID, N=21
[7] = Tipranavir SEDDS SEC 1250mg BID alone, N=22
[8] = both sexes, human, plasma, oral, 1250 mg
[9] = Tipranavir 1350 mg BID + Ritonavir 500 mg BID
[10] = Tipranavir 1350 mg BID alone, steady state
[11] = tipranavir 1350 mg BID + ritonavir 500 mg BID vs tipranavir alone
[12] = Tipranavir 600 mg BID + RTV 100 mg BID, n=7
[13] = Tipranavir 600 mg BID + RTV 500 mg BID, n=7
[14] = Tipranavir 600 mg BID alone, n=7
[15] = Tipranavir 900 mg BID + RTV 100 mg BID, n=6
[16] = Tipranavir 900 mg BID + RTV 500 mg BID, n=6
[17] = Tipranavir 900 mg BID alone, n=6
[18] = 600 mg, Tipranavir 600 mg BID alone, n=7
[19] = 900 mg, Tipranavir 900 mg BID alone, n=6
[20] = tipranavir 600 mg BID + ritonavir 100 mg BID vs alone
[21] = tipranavir 600 mg BID + ritonavir 500 mg BID vs alone
[22] = tipranavir 900 mg BID + ritonavir 100 mg BID vs alone
[23] = tipranavir 900 mg BID + ritonavir 500 mg BID vs alone
[24] = delavirdine 400 mg TID + tipranavir 1200 mg BID vs delavirdine alone

CCC[C@@]1(CCc2ccccc2)CC(O)=C([C@H](CC)c2cccc(NS(=O)(=O)c3ccc(C(F)(F)F)cn3)c2)C(=O)O1 (relative stereo) [Tipranavir, [R-(R*,R*)]-N-[3-[1-[5,6-Dihydro-4-hydroxy-2-oxo-6-(2-phenylethyl)-6-propyl-2H-pyran-3-yl]propyl]phenyl]-5-(trifluoromethyl)-2-pyridinesulfonamide]
effect of delavirdine on the pharmacokinetics of tipranavir ([1]; tipranavir 1200 mg BID + delavirdine 400 mg TID, steady state): no effect
CLPO [2, 6]: 1.19 (0.47-2.29) L/h
Cmin [2, 6]: 62.1 (11.2-261) µM
Css [2, 6]: 145 (76-371) µM
CLPO [2, 7]: 12.7 (6.1-23.7) L/h
Cmin [2, 7]: 0.82(0.30-2.20) µM
Css [2, 7]: 13.6 (7.3-28.1) µM
AUC [2, 8]: 163 µM·h
Cmax [2, 8]: 56 µM
Tmax [2, 8]: 2 h
half-life ([2]; both sexes, human, plasma, oral, 1250 mg, read-out: t½ (converted)): 5.4 h
increase of tipranavir steady-state concentrations ([2]; ritonavir 200 mg vs same dose (1250 mg BID) of tipranavir alone): more than 10 fold
effect on apparent terminal half-life of tipranavir ([2]; tipranavir 1250 mg BID + ritonavir 200 mg BID): not significantly affected
increase of median Cmax values ([2]; tipranavir 1250 mg BID + ritonavir oral solution 200 mg BID vs tipranavir alone): approximately 5 fold
CLPO [3, 9]: 1.9 (1.2-3.8) L/h
Cmin [3, 9]: 42 (12-84) µM
Css [3, 9]: 100 (49-161) µM
Cmin ([3]; Tipranavir 1350 mg BID + Ritonavir 500 mg BID, listed as tipranavir): 42 µM
CLPO [3, 10]: 31 (11-100) L/h
Cmin [3, 10]: 0.78 (0.34-1.42) µM
Css [3, 10]: 6.1 (1.9-16.8) µM
effect on tipranavir elimination half-life (t½) [3, 11]: not accompanied by a prolongation of the elimination half-life
increase of mean steady-state plasma tipranavir concentrations (Css) [3, 11]: 12 fold
increase of median tipranavir Cmax value in the presence of ritonavir [3, 11]: approximately 5.6 fold
increase of median tipranavir Cmin values [3, 11]: 45 fold
CLPO [4, 12]: 3.35 (2.44-6.07) L/h
Cmin [4, 12]: 3.14 (1.61-12.8) µM
Css [4, 12]: 24.8 (13.7-34.0) µM
CLPO [4, 13]: 2.23 (1.02-4.79) L/h
Cmin [4, 13]: 14.3 (4.70-32.5) µM
Css [4, 13]: 37.2 (17.3-81.0) µM
Cmin ([4]; Tipranavir 600 mg BID + RTV 500 mg BID, n=7, listed as tipranavir): 14.3 µM
CLPO [4, 14]: 31.3 (17.3-88.8) L/h
Cmin [4, 14]: 0.341 (0.165-0.929) µM
Css [4, 14]: 2.70 (0.94-4.79) µM
CLPO [4, 15]: 4.10 (2.45-7.86) L/h
Cmin [4, 15]: 3.62 (1.98-6.95) µM
Css [4, 15]: 30.6 (15.8-50.8) µM
CLPO [4, 16]: 1.64 (1.00-2.82) L/h
Cmin [4, 16]: 22.7 (9.91-63.2) µM
Css [4, 16]: 76.1 (44.1-124.8) µM
CLPO [4, 17]: 32.4 (20.8-53.1) L/h
Cmin [4, 17]: 0.499 (0.160-1.150) µM
Css [4, 17]: 3.88 (2.34-5.98) µM
half-life [4, 18]: 3.6 h
AUC [4, 18]: 32.5 µM·h
Cmax [4, 18]: 11.3 µM
Tmax [4, 18]: 2 h
half-life [4, 19]: 4.2 h
AUC [4, 19]: 46.5 µM·h
Cmax [4, 19]: 14.6 µM
Tmax [4, 19]: 2 h
half-life [4, 12]: 2.3 h
AUC [4, 12]: 297 µM·h
Cmax [4, 12]: 56.8 µM
Tmax [4, 12]: 2 h
half-life [4, 13]: 3.7 h
AUC [4, 13]: 446 µM·h
Cmax [4, 13]: 78.6 µM
Tmax [4, 13]: 2 h
half-life [4, 15]: 1.9 h
AUC [4, 15]: 368 µM·h
Cmax [4, 15]: 68.9 µM
Tmax [4, 15]: 3 h
half-life [4, 16]: 3.5 h
AUC [4, 16]: 913 µM·h
Cmax [4, 16]: 148 µM
Tmax [4, 16]: 2 h
predicted tipranavir concentration (target minimal therapeutic threshold) ([4]; extrapolated to a dose of ritonavir 30 mg BID): 1 µM
lowest median trough tipranavir concentration ([4]; in combination with ritonavir 100 mg BID): exceeded 3 µM
increase of plasma tipranavir concentrations ([4]; ritonavir 100 mg BID vs same dose of tipranavir alone): ~10 fold
increase of median AUC values of tipranavir [4, 20]: approximately 9 fold
increase of median Cmax values [4, 20]: 5 fold
increase of median trough tipranavir concentrations [4, 20]: approximately 9 fold
increase of median AUC values of tipranavir [4, 21]: approximately 14 fold
increase of median Cmax values [4, 21]: 7 fold
increase of median trough tipranavir concentrations [4, 21]: approximately 40 fold
effect on apparent terminal half-life of tipranavir ([4]; tipranavir 600 mg BID with concomitant ritonavir): no prolongation of the apparent terminal half-life
trough concentration ([4]; tipranavir 600 mg with ritonavir 500 mg): exceeding 3 µM
increase of median AUC values of tipranavir [4, 22]: approximately 8 fold
increase of median Cmax values [4, 22]: 5 fold
increase of median trough tipranavir concentrations [4, 22]: approximately 7 fold
increase of median AUC values of tipranavir [4, 23]: approximately 20 fold
increase of median Cmax values [4, 23]: 10 fold
increase of median trough tipranavir concentrations [4, 23]: approximately 45 fold
effect on apparent terminal half-life of tipranavir ([4]; tipranavir 900 mg BID with concomitant ritonavir): No prolongation of the apparent terminal half-life

CC(C)Nc1cccnc1N1CCN(C(=O)c2cc3cc(NS(C)(=O)=O)ccc3[nH]2)CC1 [Delavirdine]
decrease of delavirdine AUC by tipranavir ([1]; coadministration with tipranavir): > 95%
median delavirdine AUC value, fold lower [1, 24]: more than 20 fold
median trough delavirdine concentration, fold lower [1, 24]: more than 100 fold
Potential for Clinically Significant Interaction [5]: High (and unfavorable)
